Data: US5476944A, “Derivatives of cyclic phenolic thioethers” (G. D. Searle & Co., priority 1994, dated 1995)

Target: T1, 5-lipoxygenase (Rattus norvegicus, UniProt P12527)
T1 construct: The 100,000×g supernatant fraction of Rat Basophilic Leukemia Cell Homogenate (RBL-1); endogenous in cells; host or cells: RBL-1 (rat basophilic leukemia) cells, 100,000xg supernatant of homogenate
T1 sequence (P12527 1-673): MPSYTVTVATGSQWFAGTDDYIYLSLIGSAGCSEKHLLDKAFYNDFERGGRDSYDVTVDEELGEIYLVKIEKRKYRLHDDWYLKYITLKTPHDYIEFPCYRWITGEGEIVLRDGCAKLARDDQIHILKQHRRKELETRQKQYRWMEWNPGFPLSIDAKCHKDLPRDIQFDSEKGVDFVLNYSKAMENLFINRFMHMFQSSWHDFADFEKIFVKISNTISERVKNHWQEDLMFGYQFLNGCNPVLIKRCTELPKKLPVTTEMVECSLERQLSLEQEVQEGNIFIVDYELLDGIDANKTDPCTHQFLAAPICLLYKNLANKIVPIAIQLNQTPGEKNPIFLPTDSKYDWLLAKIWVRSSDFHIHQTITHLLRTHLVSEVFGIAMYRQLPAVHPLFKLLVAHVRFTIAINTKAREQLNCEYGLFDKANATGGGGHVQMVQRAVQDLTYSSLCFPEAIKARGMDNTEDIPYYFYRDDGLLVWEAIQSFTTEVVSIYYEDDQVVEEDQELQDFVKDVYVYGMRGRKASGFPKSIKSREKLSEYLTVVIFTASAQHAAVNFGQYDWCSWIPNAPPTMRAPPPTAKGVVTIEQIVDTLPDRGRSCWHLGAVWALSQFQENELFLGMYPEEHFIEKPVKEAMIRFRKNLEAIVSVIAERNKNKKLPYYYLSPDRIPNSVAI
Experiment: Inhibition of 5-lipoxygenase, in vitro (5-HETE formation, RBL-1 homogenate supernatant)
Type: biochemical
Details: RBL-1 supernatant
Method: The compounds of the invention are evaluated with respect to 5-lipoxygenaseinhibition according to the following assay procedure.
Inhibition of 5-lipoxygenase, in vitro:
The 100,000×g supernatant fraction of Rat Basophilic Leukemia Cell Homogenate (RBL-1) serves as a 5-lipoxygenase enzyme source. The enzyme is incubated with [1-^4 C)-arachidonic acid and Ca++ in the presence and absence of test compound. The product of 5-lipoxygenase, 5-hydroxyeicosatetraenoic acid (5-HETE), is separated by thin-layer chromatography and measured by radioactivity. A compound inhibiting 5-HETE synthesis by 30% or more is considered active at that concentration.
For comparison the compound of Formula XX, a known 5-lipoxygenase inhibitor described in U.S. Pat. No. 4,755,524 was used: [drawing 29] (±)[2S*-[[3,5-bis(1,1-dimethylethyl)-4-hydroxyphenyl]thio]-1R*-methylpro poxy]acetic acid.

IC50: > 100 µM
SMILES: CC(C)(C)c1cc(S[C@H]2CCCC[C@H]2OCC(=O)O)cc(C(C)(C)C)c1 (racemic) [Example 72, (±)cis-2-[[2-[[3,5-bis(1,1-dimethylethyl)phenyl]thio]cyclohexyl]oxy]acetic acid]
